Measurements as given in patent publication US9751878B2, “Tetrahydronaphthyridine somatostatin receptor 5 antagonists” (Takeda Pharmaceutical Company Limited, priority 2013, dated 2017).

Experiments:
human SSTR5 = target: T1, human SSTR5 (Homo sapiens, UniProt P35346); assay: Evaluation of human SSTR5 antagonist activity using intracellular cAMP concentration as index; type: cell-based; details: 1 μM test compound; CHO (dhfr-) cells stably expressing human SSTR5; 0.1 nM somatostatin 28, 0.3 μM forskolin; cAMP HTRF; read-out: Inhibition rate against SSTR5 at 1 μM
T1 construct: expressed in transfected cells
T1 sequence (P35346 whole entry): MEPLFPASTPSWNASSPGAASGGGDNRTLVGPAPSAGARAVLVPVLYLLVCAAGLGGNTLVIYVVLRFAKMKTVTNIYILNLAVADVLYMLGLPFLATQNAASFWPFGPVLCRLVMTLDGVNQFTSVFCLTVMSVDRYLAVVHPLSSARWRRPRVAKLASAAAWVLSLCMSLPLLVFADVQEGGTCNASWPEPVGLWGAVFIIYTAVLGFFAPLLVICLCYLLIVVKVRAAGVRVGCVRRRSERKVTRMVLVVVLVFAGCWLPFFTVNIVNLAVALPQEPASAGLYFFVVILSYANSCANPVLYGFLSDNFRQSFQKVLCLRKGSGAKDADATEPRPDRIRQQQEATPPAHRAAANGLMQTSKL
Protocol: Evaluation of Human SSTR5 Antagonist Activity Using Intracellular cAMP Concentration as Index
The intracellular cAMP concentration was measured using HTRF cAMP dynamic 2 kit (Cisbio Bioassays). Each test compound diluted with an assay buffer (HBSS (Invitrogen Corp.) containing 5 mM HEPES (pH 7.5) (Invitrogen Corp.), 0.1% fatty-acid free BSA (Sigma-Aldrich Corp.), and 500 μM IBMX (Wako Pure Chemical Industries, Ltd.)) was added at a concentration of 2 μL/well to a 384-well white plate (Greiner Bio-One Co., Ltd.) to give the final concentration of 1 μM. A frozen stock of CHO (dhfr-) cells stably expressing the human SSTR5 gene (Accession No. NM_001053) was thawed in a thermostat bath of 37° C. and suspended in a subculture medium (MEM alpha (Wako Pure Chemical Industries, Ltd.), 10% dialyzed serum (Gemini Bio-Products), and 50 μg/mL gentamicin (Invitrogen Corp.). After centrifugation of the cell suspension, the cells were resuspended in an assay buffer and added at a concentration of 2 μL/well (about 4,000 cells/well) to the plate. The compound and the cells were incubated for 15 minutes, and then, an assay buffer containing 0.1 nM (final concentration) somatostatin 28 (Toray Research Center) and 0.3 μM (final concentration) forskolin (Wako Pure Chemical Industries, Ltd.) was added thereto at a concentration of 2 μL/well, followed by incubation at room temperature for 30 minutes. cAMP-d2 and anti-cAMP-cryptate were each added thereto at a concentration of 3 μL/well. The plate was left standing at room temperature for 60 minutes. Then, the fluorescence resonance energy transfer (FRET) intensity was measured using Multi-label reader Envision (PerkinElmer). The FRET intensity of the wells supplemented with the test compound group was converted to a cAMP concentration using a calibration curve prepared from the FRET intensity of a well group containing an assay buffer supplemented with an arbitrary concentration of cAMP. The inhibitory activity of each compound was calculated according to the following expression: Inhibitory activity (%)=(C−B)/(A−B)×100 A: cAMP concentration calculated from the wells supplemented with 0.3 μM forskolin B: cAMP concentration calculated from the wells supplemented with 0.3 μM forskolin and 0.1 nM somatostatin 28 C: cAMP concentration calculated from the wells supplemented with 0.3 μM forskolin, 0.1 nM somatostatin 28, and 1 μM test compound

[1] = system: Male KK-Ay/Ta mice, a type 2 diabetes model; assay: Antidiabetic effect in mice (1); type: in vivo; details: 10 mg/kg orally once a day for 2 weeks; n=8
Protocol: Antidiabetic Effect in Mice (1)
Male KK-Ay/Ta mice (Clea Japan Inc.), a type 2 diabetes model, were used in this study. At the age of 7-week old, blood samples were collected from tail vein at 8:00 am, and animals were divided into separate groups (n=8) based on glycated hemoglobin (GHb), plasma glucose, insulin, triglyceride levels and body weight. Vehicle (0.5% (w/v) methylcellulose) or the compound of Example 67 (10 mg/kg) (suspended in vehicle) were orally administered once a day for 2 weeks. After 2 weeks of treatment, GHb was determined by auto-analyzer HLC-723G8 (TOSOH, Japan).

[2] = system: high fat diet-fed male C57BL6J mice; assay: Glucose tolerance test in mice (oral glucose tolerance test); type: in vivo; details: 1 mg/kg oral, n=6
Protocol: Glucose Tolerance Test in Mice
Oral glucose tolerance test was performed in high fat diet-fed male C57BL6J mice (Clea Japan Inc.). 8 weeks old mice were fasted overnight and divided into separate groups (n=6) based on plasma glucose levels and body weight. Vehicle (0.5% (w/v) methylcellulose) or the compound of Example 72 (1 mg/kg) (suspended in vehicle) were orally given to animals and glucose was loaded (5 g/kg) 1 h after drug administration. Blood was collected from tail vein and blood glucose levels (mg/dL) were measured by ACCU-CHEK (Roche Inc.) at time 0 (just before glucose load), 10, 30, 60 and 120 min after glucose load.

Compound | inhibition at 1 µM (human SSTR5) | other results
CCOc1cc(-c2ccc(F)cc2)c(C2CC2)cc1CN1CCC(N2CCc3nc(COC)c(C(=O)O)cc3C2=O)CC1 [Example 47, 6-(1-((2-Cyclopropyl-5-ethoxy-4′-fluorobiphenyl-4-yl)methyl)piperidin-4-yl)-2-(methoxymethyl)-5-oxo-5,6,7,8-tetrahydro-1,6-naphthyridine-3-carboxylic acid] | 106% | –
CCOc1cc(-c2ccc(F)cc2F)c(C2CC2)cc1CN1CCC(N2CCc3nc(COC)c(C(=O)O)cc3C2=O)CC1 [Example 48, 6-(1-((2-Cyclopropyl-5-ethoxy-2′,4′-difluorobiphenyl-4-yl)methyl)piperidin-4-yl)-2-(methoxymethyl)-5-oxo-5,6,7,8-tetrahydro-1,6-naphthyridine-3-carboxylic acid] | 99% | –
CCOc1cc(-c2ccc(F)cc2)c(C2CC2)cc1CN1CCC(N2CCc3nc(C(C)C)c(C(=O)O)cc3C2=O)CC1 [Example 49, 6-(1-((2-Cyclopropyl-5-ethoxy-4′-fluorobiphenyl-4-yl)methyl)piperidin-4-yl)-2-isopropyl-5-oxo-5,6,7,8-tetrahydro-1,6-naphthyridine-3-carboxylic acid] | 91% | –
CC(C)Oc1cc(-c2ccc(F)cc2)c(C2CC2)cc1CN1CCC(N2CCc3nc(C(C)C)c(C(=O)O)cc3C2=O)CC1 [Example 50, 6-(1-((2-Cyclopropyl-4′-fluoro-5-isopropoxybiphenyl-4-yl)methyl)piperidin-4-yl)-2-isopropyl-5-oxo-5,6,7,8-tetrahydro-1,6-naphthyridine-3-carboxylic acid] | 99% | –
CCCc1nc2c(cc1C(=O)O)C(=O)N(C1CCN(Cc3cc(C4CC4)c(C4CC4)cc3OCC)CC1)CC2 [Example 51, 6-(1-(4,5-Dicyclopropyl-2-ethoxybenzyl)piperidin-4-yl)-5-oxo-2-propyl-5,6,7,8-tetrahydro-1,6-naphthyridine-3-carboxylic acid] | 103% | –
CCCc1nc2c(cc1C(=O)O)C(=O)N(C1CCN(Cc3cc(C4CC4)c(C4CCC4)cc3OCC)CC1)CC2 [Example 52, 6-(1-(4-Cyclobutyl-5-cyclopropyl-2-ethoxybenzyl)piperidin-4-yl)-5-oxo-2-propyl-5,6,7,8-tetrahydro-1,6-naphthyridine-3-carboxylic acid] | 114% | –
CCOc1cc(CN2CCC(N3CCc4nc(C(=O)O)ccc4C3=O)CC2)cc(OCC)c1-c1ccc(F)cc1 [Example 53, 6-(1-((2,6-Diethoxy-4′-fluorobiphenyl-4-yl)methyl)piperidin-4-yl)-5-oxo-5,6,7,8-tetrahydro-1,6-naphthyridine-2-carboxylic acid] | 108% | –
CCOc1cc(-c2ccc(F)cc2)c(C2CC2)cc1CN1CCC(N2CCc3nc(C(=O)O)ccc3C2=O)CC1 [Example 54, 6-(1-((2-Cyclopropyl-5-ethoxy-4′-fluorobiphenyl-4-yl)methyl)piperidin-4-yl)-5-oxo-5,6,7,8-tetrahydro-1,6-naphthyridine-2-carboxylic acid] | 123% | –
CCCOc1cc(CN2CCC(N3CCc4nc(CCC)c(C(=O)O)cc4C3=O)CC2)cc(C2CC2)c1-c1ccc(F)cc1 [Example 61, 6-(1-((2-Cyclopropyl-4′-fluoro-6-propoxybiphenyl-4-yl)methyl)piperidin-4-yl)-5-oxo-2-propyl-5,6,7,8-tetrahydro-1,6-naphthyridine-3-carboxylic acid] | 96% | –
CCCc1nc2c(cc1C(=O)O)C(=O)N(C1CCN(Cc3cc(OCC)c(-c4ccc(F)c(F)c4)c(C4CC4)c3)CC1)CC2 [Example 62, 6-(1-((2-Cyclopropyl-6-ethoxy-3′,4′-difluorobiphenyl-4-yl)methyl)piperidin-4-yl)-5-oxo-2-propyl-5,6,7,8-tetrahydro-1,6-naphthyridine-3-carboxylic acid] | 92% | –
CCCc1nc2c(cc1C(=O)O)C(=O)N(C1CCN(Cc3cc(OC(C)C)c(-c4ccc(F)cc4)c(C4CC4)c3)CC1)CC2 [Example 63, 6-(1-((2-Cyclopropyl-4′-fluoro-6-isopropoxybiphenyl-4-yl)methyl)piperidin-4-yl)-5-oxo-2-propyl-5,6,7,8-tetrahydro-1,6-naphthyridine-3-carboxylic acid] | 97% | –
CCCc1nc2c(cc1C(=O)O)C(=O)N(C1CCN(Cc3cc(OCC)c(-c4ccc(F)cc4F)c(C4CC4)c3)CC1)CC2 [Example 64, 6-(1-((2-Cyclopropyl-6-ethoxy-2′,4′-difluorobiphenyl-4-yl)methyl)piperidin-4-yl)-5-oxo-2-propyl-5,6,7,8-tetrahydro-1,6-naphthyridine-3-carboxylic acid] | 89% | –
CCCc1nc2c(cc1C(=O)O)C(=O)N(C1CCN(Cc3cc(C4CC4)c(-c4ccc(F)cc4F)c(F)c3OC)CC1)CC2 [Example 65, 6-(1-((6-Cyclopropyl-2,2′,4′-trifluoro-3-methoxybiphenyl-4-yl)methyl)piperidin-4-yl)-5-oxo-2-propyl-5,6,7,8-tetrahydro-1,6-naphthyridine-3-carboxylic acid] | 86% | –
CCc1nc2c(cc1C(=O)O)C(=O)N(C1CCN(Cc3cc(C4CC4)c(-c4ccc(F)cc4F)c(Cl)c3OC)CC1)CC2 [Example 66, 6-(1-((2-Chloro-6-cyclopropyl-2′,4′-difluoro-3-methoxybiphenyl-4-yl)methyl)piperidin-4-yl)-2-ethyl-5-oxo-5,6,7,8-tetrahydro-1,6-naphthyridine-3-carboxylic acid] | 64% | –
CCCc1nc2c(cc1C(=O)O)C(=O)N(C1CCN(Cc3cc(C4CC4)c(-c4ccc(F)cc4)c(F)c3OCC)CC1)CC2 [Example 67, 6-(1-((6-Cyclopropyl-3-ethoxy-2,4′-difluorobiphenyl-4-yl)methyl)piperidin-4-yl)-5-oxo-2-propyl-5,6,7,8-tetrahydro-1,6-naphthyridine-3-carboxylic acid] | – | Average of delta GHb (%) [1]: 0.40%
CCc1nc2c(cc1C(=O)O)C(=O)N(C1CCN(Cc3cc(C4CC4)c(-c4ccc(F)cc4)c(F)c3OC(C)C)CC1)CC2 [Example 72, 6-(1-((6-Cyclopropyl-2,4′-difluoro-3-isopropoxybiphenyl-4-yl)methyl)piperidin-4-yl)-2-ethyl-5-oxo-5,6,7,8-tetrahydro-1,6-naphthyridine-3-carboxylic acid] | 97% | blood glucose levels, 10 min ([2]; 10 min after glucose load (5 g/kg)): 283 mg/dL; blood glucose levels, 30 min ([2]; 30 min after glucose load (5 g/kg)): 269 mg/dL; blood glucose levels, 60 min ([2]; 60 min after glucose load (5 g/kg)): 267 mg/dL; blood glucose levels, 120 min ([2]; 120 min after glucose load (5 g/kg)): 140 mg/dL; blood glucose levels, 0 min ([2]; time 0 (just before glucose load, 1 h after drug administration)): 123 mg/dL; AUCpre-120 min ([2]; blood glucose AUC, glucose load 5 g/kg): 463 mg·h/dL
CCCc1nc2c(cc1C(=O)O)C(=O)N(C1CCN(Cc3cc(C4CC4)c(-c4ccc(F)cc4)c(F)c3OC)CC1)CC2 [Example 81, 6-(1-((6-Cyclopropyl-2,4′-difluoro-3-methoxybiphenyl-4-yl)methyl)piperidin-4-yl)-5-oxo-2-propyl-5,6,7,8-tetrahydro-1,6-naphthyridine-3-carboxylic acid] | 82% | –
